Assay [1] is described as follows: Inhibition of PARP1 in human Jurkat cells assessed as reduction of cell viability after 96 hrs by MTS assay.
Assay [2] in a line: Inhibition of PARP1 in human Jurkat cells assessed as reduction of cell viability after 96 hrs by MTS assay in presence of 100 uM of temozolomide.

Here are results for 21 molecules from BindingDB's records for doi:10.1016/j.bmcl.2013.06.055 (Takeda California, 2013).

`CCOc1cc(CN2CCN(c3ccc(C(=O)NC4CC4)cc3C)CC2)cc2c1OC(C)C(=O)N2` (configuration not stated): the EC50 in assay [1] amounted to 100 µM; in assay [2], 0.02 µM.

Regarding `CCNC(=O)c1ccc(N2CCN(Cc3cc4c(c(OCC)c3)OC(C)C(=O)N4)CC2)c(C)c1` (configuration not stated), the values for the EC50 in assay [1] and in assay [2] were 100 µM and 0.02 µM, respectively.

`CCOc1cc(CN2CCN(c3ccc(C(=O)NC)cc3C)CC2)cc2c1OC(C)C(=O)N2` (configuration not stated): the EC50 in assay [1] was 26 µM; in assay [2], 0.02 µM.

In the case of `COc1cc(CN2CCN(c3ccc(C(=O)NC4CC4)cc3C)CC2)cc2c1OC(C)C(=O)N2` (configuration not stated), the EC50 in assay [1] was 77 µM; in assay [2], 0.02 µM.

`CCNC(=O)c1ccc(N2CCN(Cc3cc4c(c(OC)c3)OC(C)C(=O)N4)CC2)c(C)c1` (configuration not stated): the 50% effective concentration (EC50) was found to be 44 µM in assay [1] and 0.01 µM in assay [2].

For `CNC(=O)c1ccc(N2CCN(Cc3cc4c(c(OC)c3)OC(C)C(=O)N4)CC2)c(C)c1` (configuration not stated), the values for the half-maximal effective concentration (EC50) in assay [1] and in assay [2] were 100 µM and 0.06 µM, respectively.

Take `Cc1cc(C(=O)NC2CC2)ccc1N1CCN(Cc2cc(C)c3c(c2)NC(=O)C(C)O3)CC1` (configuration not stated): the EC50 is 100 µM in assay [1] and 18 µM in assay [2].

As for `CCNC(=O)c1ccc(N2CCN(Cc3cc(C)c4c(c3)NC(=O)C(C)O4)CC2)c(C)c1` (configuration not stated), the EC50 is 55 µM in assay [1] and 9 µM in assay [2].

As for `CNC(=O)c1ccc(N2CCN(Cc3cc(C)c4c(c3)NC(=O)C(C)O4)CC2)c(C)c1` (configuration not stated), the values for the EC50 in assay [1] and in assay [2] were 78 µM and 9 µM, respectively.

On to `CCNC(=O)c1ccc(N2CCN(Cc3cc(C)c4c(c3)NC(=O)C(C)O4)CC2)cc1` (configuration not stated), for which the EC50 was 94 µM in assay [1] and 9 µM in assay [2].

Consider `CNC(=O)c1ccc(N2CCN(Cc3cc(C)c4c(c3)NC(=O)C(C)O4)CC2)cc1` (configuration not stated), for which the EC50 in assay [1] was determined as 75 µM; in assay [2], 11 µM.

Turning to `CCNC(=O)c1ccc(N2CCN(Cc3ccc4c(c3)NC(=O)C(C)O4)CC2)c(Cl)c1` (configuration not stated), the EC50 in assay [1] is 100 µM; in assay [2], 4 µM.

Consider `CCNC(=O)c1ccc(N2CCN(Cc3ccc4c(c3)NC(=O)C(C)O4)CC2)cc1` (configuration not stated), for which the EC50 is 42 µM in assay [1] and 15 µM in assay [2].

Regarding `CNC(=O)c1ccc(N2CCN(Cc3ccc4c(c3)NC(=O)C(C)O4)CC2)cc1` (configuration not stated), the EC50 came to 14 µM in assay [1] and 15 µM in assay [2].

Turning to `Cc1cc(CN2CCN(c3ccc(C(=O)NC4CC4)cc3Cl)CC2)cc2c1OC(C)C(=O)N2` (configuration not stated), the 50% effective concentration (EC50) in assay [1] is 43 µM; in assay [2] it was 0.01 µM.

`CCNC(=O)c1ccc(N2CCN(Cc3cc(C)c4c(c3)NC(=O)C(C)O4)CC2)c(Cl)c1` (configuration not stated): the concentration giving a half-maximal response (EC50) in assay [1] amounted to 47 µM; in assay [2] it was 14 µM.

Regarding `CNC(=O)c1ccc(N2CCN(Cc3cc(C)c4c(c3)NC(=O)C(C)O4)CC2)c(Cl)c1` (configuration not stated), the EC50 amounted to 45 µM in assay [1] and 14 µM in assay [2].

Take `COc1cc(CN2CCN(c3ccc(C(=O)NC4CC4)cc3)CC2)cc2c1OC(C)C(=O)N2` (configuration not stated): the EC50 came out at 162 µM in assay [1] and 16 µM in assay [2].

`CCNC(=O)c1ccc(N2CCN(Cc3cc4c(c(OC)c3)OC(C)C(=O)N4)CC2)cc1` (configuration not stated): the EC50 in assay [1] came out at 151 µM; in assay [2], 16 µM.

Take `CNC(=O)c1ccc(N2CCN(Cc3cc4c(c(OC)c3)OC(C)C(=O)N4)CC2)cc1` (configuration not stated): the EC50 in assay [1] was found to be 251 µM; in assay [2], 27 µM.

On to `Cc1cc(CN2CCN(c3ccc(C(=O)NC4CC4)cc3)CC2)cc2c1OC(C)C(=O)N2` (configuration not stated), for which the EC50 was 100 µM in assay [1] and 5 µM in assay [2].
